# Measured values taken from patent US20190054090A1, “COMBINATION OF A BTK INHIBITOR AND A CHECKPOINT INHIBITOR FOR TREATING CANCERS” (Gilead Sciences, Inc., priority 2015, published 2019).
# Experiments:
# B-cell lymphoma A20 = settings: previously reported, Sagiv-Barfi et al. PNAS 2015; cited from earlier work
# [1] = body weight of A20-bearing BALB/c mice; format: in vivo; settings: first study, Compound A1 46 mg/kg/day in diet (0.037%), 4H2 i.p. 20 mg/kg day 0 then 10 mg/kg every 6 days, n=9
# Protocol: (§1) A20-bearing BALB/c mice were subcutaneously injected (5×10^6 cells per animal). Day 6 after cell injection (day 0), mice having the tumor volume of about were 200 mm^3 were randomized into four groups (n=9 per group) for treatment with vehicle (CRF-1), Compound A1, 4H2, or Compound A1 and 4H2. Mice were fed diets containing of Compound A1. 4H2 was administered intraperitoneally at 20 mg/kg on day 0 followed by 10 mg/kg every 6 days; the average dose of Compound A1 was 46 mg/kg/day (CRF-1 at 0.037%) in the first and second studies or 15 mg/kg/day (CRF-1 at 0.012%) in the second study. During the studies, tumor volume (long axis of tumor×(short axis of tumor)^2×0.5), tumor growth inhibition rate (TGI, as compared to tumors of the vehicle control group), temporal changes in tumor volume, body weight, or food intake were determined. The studies were terminated when tumors reached a maximum of 3,000 mm^3.
# In the second study, the effects of Compound A1 at 15 mg/kg/day (CRF-1 at 0.012%) and 46 mg/kg/day (CRF-1 at 0.037%) were evaluated. Similar protocols as described above were used. The study (n=12 per group) was terminated at day 17.
# [2] = tested on: A20 cell line (ATCC), mouse B-cell lymphoma; test: in vivo anti-tumor activity in A20 syngeneic tumors; settings: first study, Compound A1 46 mg/kg/day in diet (0.037%), 4H2 i.p. 20 mg/kg day 0 then 10 mg/kg every 6 days, n=9
# Protocol: This example evaluated in vivo anti-tumor activity of a BTK inhibitor Compound A1 in combination with an anti-PD-1 antibody (4H2), (Kitayama Labes Co., Ltd) in syngeneic tumors.
# A20 cell line (ATCC), mouse B-cell lymphoma, were maintained in lymphocyte growth medium (LGM): RPMI-1640 supplemented with 10% FBS, 1% penicillin-streptomycin. Fresh 1% (vol) Monothioglycerol was also added to the culture. The cell suspension of 2×10^6 to 4×10^6 cells per dish was cultured at 37° C., 5% CO2. The cells were suspended in PBS (5×10^7 cells/mL).
# as §1, with “mm^3. […]” for “mm^3.”
# [3] = tested on: L1210 cell line (JCRB), mouse lymphocytic leukemia; test: in vivo anti-tumor activity in L1210 syngeneic tumors; settings: Compound A1 54 mg/kg/day in diet (0.037%), 4H2 i.p. 20 mg/kg day 0 then 10 mg/kg every 6 days, n=8
# Protocol: (§2) This example evaluated in vivo anti-tumor activity of a BTK inhibitor (Compound A1) in combination with an anti-PD-1 antibody (4H2) in syngeneic tumors. Similar protocols as described above were used with L1210 cell line (JCRB), mouse lymphocytic leukemia.
# (§3) L1210-bearing DBA-2 mice were subcutaneously injected (5×10^5 cells/animal). Mice were randomized into four groups (n=8 per group) for treatment with vehicle (CRF-1), Compound A1, 4H2 (10 mg/kg every 6 days), or Compound A1 and 4H2. Mice were fed diets containing of Compound A1. 4H2 was administered intraperitoneally at 20 mg/kg on day 0 followed by 10 mg/kg every 6 days. The average dose of Compound A1 was 54 mg/kg/day (CRF-1 at 0.037%).
# [4] = body weight of L1210-bearing DBA-2 mice; format: in vivo; settings: Compound A1 54 mg/kg/day in diet (0.037%), 4H2 i.p. 20 mg/kg day 0 then 10 mg/kg every 6 days, n=8
# Protocol: as §2, §3
smiles,measurement,setting,value
"C=CC(=O)N1CCC[C@@H](n2nc(-c3ccc(Oc4ccccc4)cc3)c3c(N)ncnc32)C1 [ibrutinib, 1-[(3R)-3-[4-Amino-3-(4-phenoxyphenyl)-1H-pyrazolo[3,4-d]pyrimidin-1-yl]piperidin-1-yl]prop-2-en-1-one]",sensitivity of B-cell lymphoma A20 to the Btk inhibitor,B-cell lymphoma A20,would not be sensitive
"CC#CC(=O)N1CC[C@@H](n2c(=O)n(-c3ccc(Oc4ccccc4)cc3)c3c(N)ncnc32)C1 [Compound A1, (R)-6-amino-9-(1-(but-2-ynoyl)pyrrolidin-3-yl)-7-(4-phenoxyphenyl)-7H-purin-8(9H)-one]",average body weight (±standard error),[1]; day 0,19 (±0.4) g
same,average body weight (±standard error),[1]; day 2,19 (±0.4) g
same,average body weight (±standard error),[1]; day 6,20 (±0.3) g
same,average body weight (±standard error),[1]; day 9,20 (±0.3) g
same,average body weight (±standard error),[1]; day 12,21 (±0.3) g
same,average body weight (±standard error),[1]; day 15,21 (±0.3) g
same,average body weight (±standard error),[1]; day 19,22 (±0.4) g
same,average tumor volume (±standard error),[2]; day 0,168 (±11) mm^3
same,"tumor growth inhibition rate (TGI, as compared to tumors of the vehicle control group)",[2]; day 0,0.8%
same,average tumor volume (±standard error),[2]; day 2,248 (±18) mm^3
same,"tumor growth inhibition rate (TGI, as compared to tumors of the vehicle control group)",[2]; day 2,14%
same,average tumor volume (±standard error),[2]; day 6,331 (±32) mm^3
same,"tumor growth inhibition rate (TGI, as compared to tumors of the vehicle control group)",[2]; day 6,23%
same,average tumor volume (±standard error),[2]; day 9,632 (±61) mm^3
same,"tumor growth inhibition rate (TGI, as compared to tumors of the vehicle control group)",[2]; day 9,−12%
same,average tumor volume (±standard error),[2]; day 12,805 (±104) mm^3
same,"tumor growth inhibition rate (TGI, as compared to tumors of the vehicle control group)",[2]; day 12,9%
same,average tumor volume (±standard error),[2]; day 15,1408 (±157) mm^3
same,"tumor growth inhibition rate (TGI, as compared to tumors of the vehicle control group)",[2]; day 15,8%
same,average tumor volume (±standard error),[2]; day 19,2553 (±272) mm^3
same,"tumor growth inhibition rate (TGI, as compared to tumors of the vehicle control group)",[2]; day 19,10%
same,average tumor volume (±standard error),[3]; day 0,0 (±0) mm^3
same,average tumor volume (±standard error),[3]; day 4,71 (±16) mm^3
same,tumor growth inhibition rate (TGI),[3]; day 4,8%
same,average tumor volume (±standard error),[3]; day 7,247 (±34) mm^3
same,tumor growth inhibition rate (TGI),[3]; day 7,30%
same,average tumor volume (±standard error),[3]; day 10,874 (±108) mm^3
same,tumor growth inhibition rate (TGI),[3]; day 10,7%
same,average tumor volume (±standard error),[3]; day 12,1851 (±226) mm^3
same,tumor growth inhibition rate (TGI),[3]; day 12,−0.7%
same,average tumor volume (±standard error),[3]; day 14,3279 (±321) mm^3
same,tumor growth inhibition rate (TGI),[3]; day 14,−0.2%
same,average body weight (±standard error),[4]; day 0,15 (±0.4) g
same,average body weight (±standard error),[4]; day 4,16 (±0.4) g
same,average body weight (±standard error),[4]; day 7,16 (±0.4) g
same,average body weight (±standard error),[4]; day 10,17 (±0.5) g
same,average body weight (±standard error),[4]; day 12,18 (±0.4) g
same,average body weight (±standard error),[4]; day 14,19 (±0.5) g
